Results on 1 molecule are retold here after publication PMC6002448, “Evaluation of the effect of the new methoxy-stilbenes on expression of receptors and enzymes involved in estrogen synthesis in cancer breast cells” (Molecular and Cellular Biochemistry, 2017).

The assay has as its target T1, CYP19 (aromatase) (Homo sapiens, UniProt P11511).
T1 construct: gene CYP19A1; human recombinant CYP19
T1 sequence (P11511 1-503): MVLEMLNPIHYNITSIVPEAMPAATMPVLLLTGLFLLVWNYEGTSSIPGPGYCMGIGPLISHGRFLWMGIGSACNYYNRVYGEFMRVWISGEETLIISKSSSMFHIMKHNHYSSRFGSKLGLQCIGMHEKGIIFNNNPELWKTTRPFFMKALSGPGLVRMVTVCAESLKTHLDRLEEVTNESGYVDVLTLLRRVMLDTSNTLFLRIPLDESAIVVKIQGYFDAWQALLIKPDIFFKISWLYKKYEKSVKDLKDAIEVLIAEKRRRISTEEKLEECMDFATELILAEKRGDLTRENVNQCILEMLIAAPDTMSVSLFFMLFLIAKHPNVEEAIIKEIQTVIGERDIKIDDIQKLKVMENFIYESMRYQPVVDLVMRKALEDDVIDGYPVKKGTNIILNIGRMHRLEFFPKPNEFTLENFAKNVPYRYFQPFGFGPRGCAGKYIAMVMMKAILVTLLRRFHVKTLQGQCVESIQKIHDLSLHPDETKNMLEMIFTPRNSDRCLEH
In words: fluorometric CYP19/MFC inhibitor screening kit (recombinant enzyme). The format is biochemical.

Structures are written as SMILES.

On to `COc1ccccc1/C=C/c1ccc(OC)c(OC)c1` [3MS, 3,4,2′-trimethoxy-trans-stilbene], for which the IC50 (commonly the concentration that gives 50% inhibition) is roughly 85 µM.
